Data taken from PubChem BioAssay AID256 (DTP/NCI, 2004).
Several values for one entry are separate records, joined by “and”; a condition that tells them apart may be missing. Identical values can stand only once. Inconclusive results and toxic doses are left out. How the source made its calls: active means survival T/C of 150% or more; inactive means T/C below 125% in these data.

System: CD2F1 mice, L1210 leukemia ip, survival T/C
Assay: NCI In Vivo Anticancer Drug Screen. Data for tumor model L1210 Leukemia (intraperitoneal) in CD2F1 (CDF1) mice
Settings: higher = longer survival
In short: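 Ratio T/C, where T is the treated-group value and C the vehicle-dosed control value, from mice implanted with a transplantable tumor.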

[1] = endpoint: mean survival time, dose: 5.0 mg/kg/injection, schedule: Q01DX009 (ip), vehicle: saline
[2] = endpoint: mean survival time, dose: 50.0 mg/kg/injection, schedule: Q01DX009 (ip), vehicle: saline with Tween-80
[3] = endpoint: mean survival time, dose: 200.0 mg/kg/injection, schedule: Q01DX009 (ip), vehicle: saline with Tween-80
[4] = endpoint: mean survival time, dose: 100.0 mg/kg/injection, schedule: Q01DX009 (ip), vehicle: saline with Tween-80
[5] = endpoint: mean survival time, dose: 100.0 mg/kg/injection, schedule: Q04DX002 (ip), vehicle: saline with Tween-80
[6] = endpoint: mean survival time, dose: 100.0 mg/kg/injection, schedule: Q04DX003 (ip), vehicle: saline with Tween-80
[7] = endpoint: mean survival time, dose: 200.0 mg/kg/injection, schedule: Q04DX003 (ip), vehicle: saline with Tween-80
[8] = endpoint: mean survival time, dose: 400.0 mg/kg/injection, schedule: Q04DX003 (ip), vehicle: saline with Tween-80

Measured: T/C

CCC[S][Pb]([c]1ccccc1)([c]1ccccc1)[c]1ccccc1
inactive: endpoint: mean survival time, dose: 10.0 mg/kg/injection, schedule: Q01DX001 (ip), vehicle: Klucel (hydroxypropylcellulose) (HPC) 98 % of control | endpoint: mean survival time, dose: 20.0 mg/kg/injection, schedule: Q01DX001 (ip), vehicle: Klucel (hydroxypropylcellulose) (HPC) 101 % of control | endpoint: mean survival time, dose: 40.0 mg/kg/injection, schedule: Q01DX001 (ip), vehicle: Klucel (hydroxypropylcellulose) (HPC) 104 % of control

Clc1ccc(C[n+]2ccccc2)cc1Cl
inactive: [1] 98 % of control | endpoint: mean survival time, dose: 10.0 mg/kg/injection, schedule: Q01DX009 (ip), vehicle: saline 104 % of control | endpoint: mean survival time, dose: 10.0 mg/kg/injection, schedule: Q04DX003 (ip), vehicle: saline 100 % of control | endpoint: mean survival time, dose: 20.0 mg/kg/injection, schedule: Q01DX009 (ip), vehicle: saline 98 % of control | endpoint: mean survival time, dose: 20.0 mg/kg/injection, schedule: Q04DX003 (ip), vehicle: saline 94 % of control

COc1cc(Cl)ccc1NC(=O)N1CCN(c2ccccc2)CC1
inactive: endpoint: mean survival time, dose: 12.5 mg/kg/injection, schedule: Q01DX009 (ip), vehicle: saline with Tween-80 96 % of control | endpoint: mean survival time, dose: 25.0 mg/kg/injection, schedule: Q01DX009 (ip), vehicle: saline with Tween-80 96 % of control | [2] 92 % of control and 93 % of control | [3] 86 % of control

OC(Cc1[nH]c2ccccc2c1C(O)(C(F)(F)F)C(F)(F)F)(C(F)(F)F)C(F)(F)F
inactive: endpoint: mean survival time, dose: 100.0 mg/kg/injection, schedule: Q01DX009 (ip), vehicle: other 101 % of control | endpoint: mean survival time, dose: 200.0 mg/kg/injection, schedule: Q01DX009 (ip), vehicle: other 110 % of control | endpoint: mean survival time, dose: 400.0 mg/kg/injection, schedule: Q01DX009 (ip), vehicle: other 94 % of control

O=C(O)C(O)C(O)C(O)C(O)CO (stereo unspecified)
inactive: [2] 109 % of control | [4] 97 % of control | [3] 106 % of control

O=C(O)/C=C(/C(=O)O)c1cccn1Cc1ccccc1
inactive: endpoint: mean survival time, dose: 25.0 mg/kg/injection, schedule: Q04DX002 (ip), vehicle: saline with Tween-80 93 % of control | endpoint: mean survival time, dose: 50.0 mg/kg/injection, schedule: Q04DX002 (ip), vehicle: saline with Tween-80 101 % of control | [5] 86 % of control and 87 % of control

CCOc1ccccc1NC(=O)NCC(=O)NNC(=O)Nc1ccc(Cl)c([N+](=O)[O-])c1
inactive: [4] 92 % of control | [3] 92 % of control | endpoint: mean survival time, dose: 400.0 mg/kg/injection, schedule: Q01DX009 (ip), vehicle: saline with Tween-80 97 % of control

Nc1nc(N)c(-c2cccc(Cl)c2)c(COc2ccc([N+](=O)[O-])cc2)n1
inactive: endpoint: mean survival time, dose: 100.0 mg/kg/injection, schedule: Q01DX001 (ip), vehicle: saline with Tween-80 94 % of control | endpoint: mean survival time, dose: 200.0 mg/kg/injection, schedule: Q01DX001 (ip), vehicle: saline with Tween-80 92 % of control | endpoint: mean survival time, dose: 400.0 mg/kg/injection, schedule: Q01DX001 (ip), vehicle: saline with Tween-80 93 % of control

O=C(NCCCCOc1ccc([N+](=O)[O-])cc1Cl)NC1CCCCC1
inactive: [6] 102 % of control | [7] 94 % of control | [8] 91 % of control

Cc1nc(SCc2ccccc2)[nH]c(=O)c1CCO
inactive: [6] 96 % of control | [7] 96 % of control

COc1cc(Cl)ccc1NC(=O)Oc1ccc(Br)cc1
inactive: [2] 92 % of control | [4] 96 % of control | [3] 87 % of control

COC(=O)C1OC([n+]2ccccc2)C(OC(C)=O)C(OC(C)=O)C1OC(C)=O (stereo unspecified)
inactive: endpoint: median survival time, dose: 12.5 mg/kg/injection, schedule: Q01DX005 (ip), vehicle: saline 103 % of control | endpoint: median survival time, dose: 25.0 mg/kg/injection, schedule: Q01DX005 (ip), vehicle: saline 107 % of control | endpoint: median survival time, dose: 50.0 mg/kg/injection, schedule: Q01DX005 (ip), vehicle: saline 100 % of control | endpoint: median survival time, dose: 100.0 mg/kg/injection, schedule: Q01DX005 (ip), vehicle: saline 107 % of control | endpoint: median survival time, dose: 200.0 mg/kg/injection, schedule: Q01DX005 (ip), vehicle: saline 103 % of control

O=Cc1cc(=O)n2c3c(cccc13)CCC2
inactive: endpoint: mean survival time, dose: 100.0 mg/kg/injection, schedule: Q04DX003 (ip), vehicle: saline 98 % of control | endpoint: mean survival time, dose: 200.0 mg/kg/injection, schedule: Q04DX003 (ip), vehicle: saline 98 % of control

CN1CCN(c2ccc([N+](=O)[O-])c3no[n+]([O-])c23)CC1
inactive: endpoint: mean survival time, dose: 2.5 mg/kg/injection, schedule: Q01DX009 (ip), vehicle: saline with Tween-80 105 % of control and 112 % of control | endpoint: mean survival time, dose: 5.0 mg/kg/injection, schedule: Q01DX009 (ip), vehicle: saline with Tween-80 114 % of control and 108 % of control | [1] 123 % of control | endpoint: mean survival time, dose: 10.0 mg/kg/injection, schedule: Q01DX009 (ip), vehicle: saline with Tween-80 116 % of control and 110 % of control | endpoint: mean survival time, dose: 20.0 mg/kg/injection, schedule: Q01DX009 (ip), vehicle: saline with Tween-80 117 % of control and 119 % of control | endpoint: mean survival time, dose: 40.0 mg/kg/injection, schedule: Q01DX009 (ip), vehicle: saline with Tween-80 122 % of control and 103 % of control | endpoint: mean survival time, dose: 80.0 mg/kg/injection, schedule: Q01DX009 (ip), vehicle: saline with Tween-80 121 % of control

O=c1ccnc[nH]1
inactive: endpoint: mean survival time, dose: 100.0 mg/kg/injection, schedule: Q04DX003 (ip), vehicle: saline sonified 93 % of control | endpoint: mean survival time, dose: 200.0 mg/kg/injection, schedule: Q04DX003 (ip), vehicle: saline sonified 104 % of control | endpoint: mean survival time, dose: 400.0 mg/kg/injection, schedule: Q04DX003 (ip), vehicle: saline sonified 104 % of control

O=S(=O)(C1CCCCC1)N1N=NC2CCCCC21 (stereo unspecified)
inactive: [6] 100 % of control | [7] 102 % of control

CS(C)(=O)=C/C(=C\C(=O)c1ccccc1)c1ccccc1
inactive: endpoint: mean survival time, dose: 25.0 mg/kg/injection, schedule: Q01DX009 (ip), vehicle: saline 94 % of control | endpoint: mean survival time, dose: 50.0 mg/kg/injection, schedule: Q01DX009 (ip), vehicle: saline 94 % of control | endpoint: mean survival time, dose: 100.0 mg/kg/injection, schedule: Q01DX009 (ip), vehicle: saline 94 % of control

CCCCCCCCCCCC[n+]1cccc2ccccc21
inactive: endpoint: mean survival time, dose: 0.35 mg/kg/injection, schedule: Q01DX009 (ip), vehicle: saline 106 % of control | endpoint: mean survival time, dose: 0.7 mg/kg/injection, schedule: Q01DX009 (ip), vehicle: saline 111 % of control | endpoint: mean survival time, dose: 1.4 mg/kg/injection, schedule: Q01DX009 (ip), vehicle: saline 117 % of control

O=c1c2ncn(C3CC(O)C(O)C(CO)O3)c2ncn1C1CC(O)C(O)C(CO)O1 (stereo unspecified)
inactive: endpoint: mean survival time, dose: 12.5 mg/kg/injection, schedule: Q01DX005 (ip), vehicle: water 108 % of control | endpoint: mean survival time, dose: 25.0 mg/kg/injection, schedule: Q01DX005 (ip), vehicle: water 97 % of control | endpoint: mean survival time, dose: 50.0 mg/kg/injection, schedule: Q01DX005 (ip), vehicle: water 100 % of control | endpoint: mean survival time, dose: 100.0 mg/kg/injection, schedule: Q01DX005 (ip), vehicle: water 97 % of control | endpoint: mean survival time, dose: 200.0 mg/kg/injection, schedule: Q01DX005 (ip), vehicle: water 97 % of control

CC(=O)OCC1OC(Oc2c([N+](=O)[O-])cc([N+](=O)[O-])c3ccccc23)C(OC(C)=O)C(OC(C)=O)C1OC(C)=O (stereo unspecified)
inactive: [5] 96 % of control | endpoint: mean survival time, dose: 200.0 mg/kg/injection, schedule: Q04DX002 (ip), vehicle: saline with Tween-80 93 % of control | endpoint: mean survival time, dose: 400.0 mg/kg/injection, schedule: Q04DX002 (ip), vehicle: saline with Tween-80 104 % of control

CC(=O)C1CCC2C3CC=C4CC(n5cc(F)c(=O)[nH]c5=O)CCC4(C)C3CCC12C (stereo unspecified)
inactive: endpoint: mean survival time, dose: 12.5 mg/kg/injection, schedule: Q04DX003 (ip), vehicle: Klucel (hydroxypropylcellulose) (HPC) 97 % of control | endpoint: mean survival time, dose: 25.0 mg/kg/injection, schedule: Q04DX003 (ip), vehicle: Klucel (hydroxypropylcellulose) (HPC) 101 % of control | endpoint: mean survival time, dose: 50.0 mg/kg/injection, schedule: Q04DX003 (ip), vehicle: Klucel (hydroxypropylcellulose) (HPC) 97 % of control | endpoint: mean survival time, dose: 100.0 mg/kg/injection, schedule: Q04DX003 (ip), vehicle: Klucel (hydroxypropylcellulose) (HPC) 98 % of control | endpoint: mean survival time, dose: 200.0 mg/kg/injection, schedule: Q04DX003 (ip), vehicle: Klucel (hydroxypropylcellulose) (HPC) 91 % of control

OC(CCl)Cc1ccccc1 (stereo unspecified)
inactive: [6] 95 % of control

Cc1cc(C)c(C(C)(C)O)c(C)c1
inactive: [7] 98 % of control | [8] 106 % of control
